Data: paper PMC10817945, “Design of a novel analogue peptide with potent antibiofilm activities against Staphylococcus aureus based upon a sapecin B-derived peptide” (Scientific Reports, 2024)
Converted amounts (≈) assume the structure as drawn. “And” between values parts separate entries of the source, which are not always exact repeats. Equal values may be shown once. Read-outs that look alike come from different tables or passages of the source.

Assays:
S. aureus isolates [1] = experiment: Kirby-Bauer disk diffusion antimicrobial susceptibility testing; format: cell-based, Staphylococcus aureus; further: key: R: Resistant; S: Susceptible
Text: Three MRSA, two MSSA clinical isolates, and one S. aureus reference strain (ATCC 25923) were investigated in this study. […] The presence of the mecA/mecC gene was studied by PCR in all cefoxitin resistant isolates[42],[43].

Human red blood cells = experiment: Hemolysis assay; conditions: human erythrocytes, 1 h, 37 °C
Method: The assay was performed using fresh human blood samples containing citrate phosphate dextrose anticoagulant collected from a blood bank (Iranian Blood Transfusion Organization). Human red blood cells (RBC) were centrifuged at 1700×g for 5 min; then the supernatant was removed and the erythrocyte pellet was diluted 1:100 in PBS to obtain a 1% erythrocyte suspension. […] Then, 50 μl of the 1% erythrocyte suspension and 50 μl of the peptides were mixed and added to wells of a 96-well polypropylene conical bottom microplate and incubated at 37 °C for 1 h. Following centrifugation of the samples at 1700×g for 5 min, 50 μl of the supernatant was transferred to wells of a 96-well flat-bottom plate for the absorbance measurement at 405 nm in a microplate reader. Identical volumes of Triton X-100 (1%) and PBS were used as positive and negative controls, respectively. The selectivity indexes (SI) were also determined as a toxicity indicator.

[2] = system: clinical Salmonella isolates; set-up: method as in PMID 34361810; conditions: cited from earlier work
[3] = system: drug resistant Mycobacterium abscessus isolates; set-up: method as in ref 33 (Sudadech et al.); conditions: ref 33 (Sudadech et al.), cited from earlier work
S. aureus isolates [4] = experiment: microbe, parasite or virus in culture; format: cell-based, Staphylococcus aureus
Method: (§1) Minimum inhibitory concentrations (MIC) of KLK, mKLK, and vancomycin were determined using microdilution broth assay according to clinical and laboratory standards institute (CLSI) guidelines with some modifications. Briefly, overnight cultures were diluted in Muller-Hinton broth (MHB; Merck, Germany) to achieve a final density of 5 × 10^5 CFU/ml. A volume of 100 μl of bacterial suspension was added to wells of sterile 96-well plates containing 100 μl of two-fold peptide dilutions, ranging from 0.25 to 256 µg/ml. Vancomycin was used as a positive control in this assay. […] MBC was determined by removing samples from wells with no visible growth, serially diluting, and plating on Mueller Hinton (MH) agar plates for CFU counting.

S. aureus isolates [5] = format: cell-based, Staphylococcus aureus
Method: as §1

[6] = system: one MRSA and reference strain (ATCC25923); experiment: Time-kill kinetics assay
Method: The peptide-free control was included for each strain. Following incubation at 37 °C for 0, 0.25, 0.5, 1, 2, 4, 5, and 24 h, each sample was serially diluted, plated onto Mueller–Hinton (MH) agar (Merck, Germany) plates and incubated at 37 °C. The viable plate count method was performed after incubation for 24 h and the counts were expressed as Log CFU/ml[44].

For Amoxicillin/clavulanic acid [AMC], the Antimicrobial susceptibility testing (S. aureus isolates [1]; MRSA-1) was “R”, the Antimicrobial susceptibility testing (S. aureus isolates [1]; MRSA-2) was “R” and the Antimicrobial susceptibility testing (S. aureus isolates [1]; MRSA-3) was “R”. The Antimicrobial susceptibility testing (S. aureus isolates [1]; MSSA-1) was “S” and the Antimicrobial susceptibility testing (S. aureus isolates [1]; MSSA-2) was “S”.

In the case of `CC[C@H](C)[C@H](NC(=O)[C@H](CCCCN)NC(=O)[C@H](CCC(=O)O)NC(=O)[C@H](CCCCN)NC(=O)[C@H](CO)NC(=O)[C@H](CCCCN)NC(=O)[C@H](CCCNC(=N)N)NC(=O)[C@H](Cc1ccccc1)NC(=O)[C@H](Cc1ccccc1)NC(=O)[C@H](CC(=O)O)NC(=O)CNC(=O)[C@H](CC(C)C)NC(=O)[C@@H](N)CC(C)C)C(=O)NCC(=O)N[C@@H](CCCCN)C(=O)N[C@@H](CCC(=O)O)C(=O)N[C@@H](Cc1ccccc1)C(=O)N[C@@H](CCCCN)C(=O)N[C@@H](CCCNC(=N)N)C(=O)N[C@H](C(=O)N[C@H](C(=O)N[C@@H](CCC(N)=O)C(=O)N[C@@H](CCCNC(=N)N)C(=O)N[C@H](C(=O)N[C@@H](CCCCN)C(=O)N[C@@H](CC(=O)O)C(=O)N[C@@H](Cc1ccccc1)C(=O)N[C@@H](CC(C)C)C(=O)N[C@@H](CCCNC(=N)N)C(=O)N[C@@H](CC(N)=O)C(=O)N[C@@H](CC(C)C)C(=O)N[C@H](C(=O)N1CCC[C@H]1C(=O)N[C@@H](CCCNC(=N)N)C(=O)N[C@H](C(=O)N[C@@H](CCC(=O)O)C(=O)N[C@@H](CO)C(=O)O)[C@@H](C)O)C(C)C)[C@@H](C)CC)C(C)C)[C@@H](C)CC` [LL-37], the HC50 (Human red blood cells) is reported as 150 µM and 673.5 µg/ml.

With `O=C(N[C@H](CO)[C@H](O)c1ccc([N+](=O)[O-])cc1)C(Cl)Cl` [C, Chloramphenicol] the Antimicrobial susceptibility testing (S. aureus isolates [1]; MRSA-1) was “S”, the Antimicrobial susceptibility testing (S. aureus isolates [1]; MRSA-2) was “S” and the Antimicrobial susceptibility testing (S. aureus isolates [1]; MRSA-3) was “S”. For the same molecule, the Antimicrobial susceptibility testing (S. aureus isolates [1]; MSSA-1) was “S” and the Antimicrobial susceptibility testing (S. aureus isolates [1]; MSSA-2) was “S”.

In the case of KLKLLLLLKL [KLK1, variant of KLK], the MIC [2] is given as > 256 µM, the killing ([3]; against 62.5% of the tested isolates within 24 h) is given as ~ 99% and the MIC ([3]; drug resistant Mycobacterium abscessus isolates) is given as < 50 µg/mL.

With `CNC(C)C1CCC(N)C(OC2C(N)CC(N)C(OC3OCC(C)(O)C(NC)C3O)C2O)O1` (centres unmarked) [GEN, Gentamicin] the Antimicrobial susceptibility testing (S. aureus isolates [1]; MRSA-1) was “S”, the Antimicrobial susceptibility testing (S. aureus isolates [1]; MRSA-2) was “S” and the Antimicrobial susceptibility testing (S. aureus isolates [1]; MRSA-3) was “S”. For the same molecule, the Antimicrobial susceptibility testing (S. aureus isolates [1]; MSSA-1) was “S” and the Antimicrobial susceptibility testing (S. aureus isolates [1]; MSSA-2) was “S”.

With Trimethoprim/sulphamethoxazole [SXT] the Antimicrobial susceptibility testing (S. aureus isolates [1]; MRSA-1) was “S”, the Antimicrobial susceptibility testing (S. aureus isolates [1]; MRSA-2) was “S” and the Antimicrobial susceptibility testing (S. aureus isolates [1]; MRSA-3) was “R”. For the same molecule, the Antimicrobial susceptibility testing (S. aureus isolates [1]; MSSA-1) was “S” and the Antimicrobial susceptibility testing (S. aureus isolates [1]; MSSA-2) was “S”.

In the case of `CO/N=C(\C(=O)N[C@@H]1C(=O)N2C(C(=O)[O-])=C(C[N+]3(C)CCCC3)CS[C@H]12)c1csc(N)n1` [FEP, Cefepime], the Antimicrobial susceptibility testing (S. aureus isolates [1]; MRSA-1) is reported as “R”, the Antimicrobial susceptibility testing (S. aureus isolates [1]; MRSA-2) is reported as “R” and the Antimicrobial susceptibility testing (S. aureus isolates [1]; MRSA-3) is reported as “R”. The Antimicrobial susceptibility testing (S. aureus isolates [1]; MSSA-1) was “S” and the Antimicrobial susceptibility testing (S. aureus isolates [1]; MSSA-2) was “S”.

With `CC1(C)S[C@@H]2[C@H](NC(=O)[C@H](N)c3ccccc3)C(=O)N2[C@H]1C(=O)O` [AMP, Ampicilln] the Antimicrobial susceptibility testing (S. aureus isolates [1]; MRSA-1) was “R”, the Antimicrobial susceptibility testing (S. aureus isolates [1]; MRSA-2) was “R” and the Antimicrobial susceptibility testing (S. aureus isolates [1]; MRSA-3) was “R”. For the same molecule, the Antimicrobial susceptibility testing (S. aureus isolates [1]; MSSA-1) was “S” and the Antimicrobial susceptibility testing (S. aureus isolates [1]; MSSA-2) was “S”.

In the case of `CN(C)[C@@H]1C(O)=C(C(N)=O)C(=O)[C@@]2(O)C(O)=C3C(=O)c4c(O)cccc4[C@@](C)(O)[C@H]3C[C@@H]12` [TE, Tetracycline], the Antimicrobial susceptibility testing (S. aureus isolates [1]; MRSA-1) is reported as “R”, the Antimicrobial susceptibility testing (S. aureus isolates [1]; MRSA-2) is reported as “R” and the Antimicrobial susceptibility testing (S. aureus isolates [1]; MRSA-3) is reported as “R”. For the same molecule, the Antimicrobial susceptibility testing (S. aureus isolates [1]; MSSA-1) was “R” and the Antimicrobial susceptibility testing (S. aureus isolates [1]; MSSA-2) was “R”.

In the case of `CO[C@@]1(NC(=O)Cc2cccs2)C(=O)N2C(C(=O)O)=C(COC(N)=O)CS[C@@H]21` [FOX, Cefoxicitin], the Antimicrobial susceptibility testing (S. aureus isolates [1]; MRSA-1) is reported as “R”, the Antimicrobial susceptibility testing (S. aureus isolates [1]; MRSA-2) is reported as “R” and the Antimicrobial susceptibility testing (S. aureus isolates [1]; MRSA-3) is reported as “R”. For the same molecule, the Antimicrobial susceptibility testing (S. aureus isolates [1]; MSSA-1) was “S” and the Antimicrobial susceptibility testing (S. aureus isolates [1]; MSSA-2) was “S”.

With `CC[C@H]1OC(=O)[C@H](C)[C@@H](O[C@H]2C[C@@](C)(OC)[C@@H](O)[C@H](C)O2)[C@H](C)[C@@H](O[C@@H]2O[C@H](C)C[C@H](N(C)C)[C@H]2O)[C@](C)(O)C[C@@H](C)C(=O)[C@H](C)[C@@H](O)[C@]1(C)O` [E, Erythromycin] the Antimicrobial susceptibility testing (S. aureus isolates [1]; MRSA-1) was “S”, the Antimicrobial susceptibility testing (S. aureus isolates [1]; MRSA-2) was “S” and the Antimicrobial susceptibility testing (S. aureus isolates [1]; MRSA-3) was “S”. The Antimicrobial susceptibility testing (S. aureus isolates [1]; MSSA-1) was “S” and the Antimicrobial susceptibility testing (S. aureus isolates [1]; MSSA-2) was “S”.

In the case of `CN[C@H](CC(C)C)C(=O)N[C@H]1C(=O)N[C@@H](CC(N)=O)C(=O)N[C@H]2C(=O)N[C@H]3C(=O)N[C@H](C(=O)N[C@H](C(=O)O)c4cc(O)cc(O)c4-c4cc3ccc4O)[C@H](O)c3ccc(c(Cl)c3)Oc3cc2cc(c3O[C@@H]2O[C@H](CO)[C@@H](O)[C@H](O)[C@H]2O[C@H]2C[C@](C)(N)[C@H](O)[C@H](C)O2)Oc2ccc(cc2Cl)[C@H]1O` [vancomycin, Vancomycin], the MIC (S. aureus isolates [4]; ATCC25923) is reported as 0.25 µg/mL (≈ 0.173 µM), the MIC (S. aureus isolates [4]; MRSA-1) is reported as 0.25 µg/mL (≈ 0.173 µM) and the MIC (S. aureus isolates [4]; MRSA-2) is reported as 0.5 µg/mL (≈ 0.345 µM). It also gave an MIC (S. aureus isolates [4]; MRSA-3) of 0.5 µg/mL (≈ 0.345 µM), an MIC (S. aureus isolates [4]; MSSA-1) of 0.25 µg/mL (≈ 0.173 µM) and an MIC (S. aureus isolates [4]; MSSA-2) of 0.25 µg/mL (≈ 0.173 µM). It also gave an MIC (S. aureus isolates [4]; Staphylococcus aureus) of 0.25 to 0.5 µg/mL (≈ 0.173 to 0.345 µM), an MBC (S. aureus isolates [5]; ATCC25923) of 0.25 µg/mL (≈ 0.173 µM) and an MBC (S. aureus isolates [5]; MRSA-1) of 0.5 µg/mL (≈ 0.345 µM). The MBC (S. aureus isolates [5]; MRSA-2) was 0.5 µg/mL (≈ 0.345 µM), the MBC (S. aureus isolates [5]; MRSA-3) was 0.5 µg/mL (≈ 0.345 µM) and the MBC (S. aureus isolates [5]; MSSA-1) was 0.25 µg/mL (≈ 0.173 µM). For the same molecule, the MBC (S. aureus isolates [5]; MSSA-2) was 0.25 µg/mL (≈ 0.173 µM), the Antimicrobial susceptibility testing (S. aureus isolates [1]; MRSA-1) was “S” and the Antimicrobial susceptibility testing (S. aureus isolates [1]; MRSA-2) was “S”. The Antimicrobial susceptibility testing (S. aureus isolates [1]; MRSA-3) was “S”, the Antimicrobial susceptibility testing (S. aureus isolates [1]; MSSA-1) was “S” and the Antimicrobial susceptibility testing (S. aureus isolates [1]; MSSA-2) was “S”. The “time after which no regrowth was observed” value ([6]; ATCC 25923, 1 × MIC (0.25 μg/ml)) was 24 h, the “reduction in viable cell count” value ([6]; ATCC 25923, 1 × MIC, during 4 h) was ~ 3 log and the “time after which no regrowth was observed” value ([6]; ATCC 25923, 2 × MIC) was 24 h. For the same molecule, the “reduction in viable cell count” value ([6]; ATCC 25923, 2 × MIC, within 4 h) was ~ 4 log, the “time after which no regrowth was observed” value ([6]; MRSA, 1 × MIC) was 24 h and the “reduction in viable cell count” value ([6]; MRSA, 1 × MIC (0.5 μg/ml), during 5 h) was ~ 2 log. For the same molecule, the “time after which no growth was observed” value ([6]; MRSA, 2 × MIC (1 μg/ml)) was 24 h, the “reduction in viable cell count” value ([6]; MRSA, 2 × MIC (1 μg/ml), within 4 h) was ~ 2 log and the “reduction in viable cell count” value ([6]; MRSA, 2 × MIC (1 μg/ml), within 5 h) was ~3 log.

In the case of `CC(=O)NC[C@H]1CN(c2ccc(N3CCOCC3)c(F)c2)C(=O)O1` [LZD, Linezolide], the Antimicrobial susceptibility testing (S. aureus isolates [1]; MRSA-1) is reported as “S”, the Antimicrobial susceptibility testing (S. aureus isolates [1]; MRSA-2) is reported as “S” and the Antimicrobial susceptibility testing (S. aureus isolates [1]; MRSA-3) is reported as “S”. The Antimicrobial susceptibility testing (S. aureus isolates [1]; MSSA-1) was “S” and the Antimicrobial susceptibility testing (S. aureus isolates [1]; MSSA-2) was “S”.

In the case of `CO[C@H]1/C=C/O[C@@]2(C)Oc3c(C)c(O)c4c(O)c(c(/C=N/N5CCN(C)CC5)c(O)c4c3C2=O)NC(=O)/C(C)=C\C=C\[C@H](C)[C@H](O)[C@@H](C)[C@@H](O)[C@@H](C)[C@H](OC(C)=O)[C@@H]1C` [RP, Rifampicin], the Antimicrobial susceptibility testing (S. aureus isolates [1]; MRSA-1) is reported as “S”, the Antimicrobial susceptibility testing (S. aureus isolates [1]; MRSA-2) is reported as “S” and the Antimicrobial susceptibility testing (S. aureus isolates [1]; MRSA-3) is reported as “S”. For the same molecule, the Antimicrobial susceptibility testing (S. aureus isolates [1]; MSSA-1) was “S” and the Antimicrobial susceptibility testing (S. aureus isolates [1]; MSSA-2) was “S”.
